One test has as its system NPD1 synthesis. Kind of test: NPD1 synthesis and release from polarized primary human RPE cell monolayers (lipidomic analysis). The format is cell-based. As to the method: Human RPE cells. Cultures of retinal pigment epithelial (RPE) cells were prepared. RPE cells were seeded onto Millicell-HA culture plate inserts (Millipore, Bradford, Mass.), placed in 24-well plates, and allowed to reach confluence. Consent for use of tissue for research was obtained in compliance with Federal and State law and institutional regulations. Cultures were maintained in Chee's essential replacement medium until the experiments were performed as described in J. Hu and D. Bok (2001) Mol Vis 7:14-19. The medium includes Eagle's minimal essential medium with calcium (MEM, Irvine Scientific, Irvine, Calif.), 1% heat-inactivated calf serum (JRH Bioscience, Lennexo, Kans.), amino acid supplements, and 1% bovine retinal extract. The Millicell-HA filter inserts allow separate manipulation of the culture media bathing the apical and basal surfaces of the RPE monolayer and measurement of the transepithelial resistance (TER), which provides a measure of cell differentiation and confluency. Cultures were used for experiments once they developed a TER of at least 400 Ω·cm^2, as measured by an Epithelial Volt-ohmmeter (EVOM, World Precision Instruments, New Haven, Conn.).
Exposure of RPE cells to growth factors. […] […] The lower chamber was filled with 500 μl media (bathing the basal cell monolayer surface) containing 0.1% HSA. Cells were incubated for 72 hours, then apical and basal media were removed and collected for analysis. After allowing the cells to rest for at least 72 hours on fresh media, the experiments were repeated.
Lipidomic analysis. Human RPE primary cell cultures or ARPE-19 cells were separated from culture media and washed with 1 ml PBS. After addition of 1 ml methanol, cells were scraped from plates or millicell membranes and collected for lipid extraction. Media was spun-down to separate cell debris, then 350 μl were collected in 1 ml of cold chloroform:methanol (1:1). Protein precipitates were then separated by centrifugation at 1500×g (5 min, 4° C.). Lipid extracts were collected, and kept under nitrogen at −80° C. until solid-phase purification; extracts were pre-equilibrated at pH 3.0 in 10% methanol/water, then loaded to 500 mg C18 columns (Varian, Inc., Palo Alto, Calif.), and eluted with 1% methanol/ethyl acetate. Eluates were concentrated on a N2 stream evaporator. Samples were loaded to a liquid chromatograph-tandem mass spectrometer (LC-TSQ Quantum, Thermo-Finnigan; Thermo Fisher Scientific, Waltham, Mass.) installed with a Biobasic-AX column (Thermo-Hypersil-Keystone, Thermo Fisher Scientific, Waltham, Mass.) (100 mm\2.1 mm, 5-μm particle sizes), and eluted in a linear gradient [100% solution A (40:60:0.01 methanol/water/acetic acid pH 4.5) to 100% solution B (99.99:0.01 methanol/acetic acid)], at a flow rate of 300 μl/min for 30 minutes. LC effluents were diverted to an electro-spray-ionization probe (ESI) on a TSQ Quantum (Thermo-Finnigan, Thermo Fisher Scientific, Waltham, Mass.) triple quadrupole mass spectrometer. NPD1 and resolving D1 were obtained by biogenic synthesis as described in N. G. Bazan, D. L. Birkle, and T. S. Reddy (1984) Biochem Biophys Res Commun. 125:741-74, and V. L. Marcheselli et al. (2003) J. Biol. Chem. 278:43807-43817. Erratum in: (2003) J Biol Chem 278:51974. Other lipid standards (Cayman Chem. Ann Arbor, Mich.) were used for tuning and optimization and to create calibration curves. The instrument was set on full-scan mode, to detect parent ions, and selected reaction mode (SRM) for quantitative analysis, to detect product ions, simultaneously. The selected parent/product ions (m/z) and collision energy (v) obtained by running on negative ion detection mode were: 359.2/153.1/20 for NPD1, 343.2/281.2/18 for resolving D1, 351.2/195.0/22 for 20HO-LTB4 (used as internal standard), 327.2/283.3/16 for DHA, 311.3/267.3/20 Arachidonic Acid-d8 (used as internal standard, IS).
Neurotrophins activated NPD1 synthesis in cultured primary human RPE cells. […]

The subject of test [1] is ARPE-19 cells. Kind of test: A2E-induced apoptosis in ARPE-19 cells (Hoechst 33258 staining). The test is classed as cell-based, human. As to the method:
Hoechst Staining. ARPE-19 cells were incubated with 2 μM Hoechst reagent dissolved in Lock's solution (Promega Corporation, Madison. Wis.) at 37° C. for 45 minutes before imaging. Cells were washed once with PBS and photographed using a Nikon DIAPHOT 200 microscope with fluorescence optics. Images were recorded by a Hamamatsu Color Chilled 3CCD camera and PHOTOSHOP 5.0 software (Adobe Systems, Mountain View, Calif.).
(§1) A2E, a lipofusin component, accumulates in the RPE during aging, and, in an exaggerated manner, in age-related macular degeneration (AMD) and Stargardt macular dystrophy (an early onset form of AMD). As a consequence, RPE apoptosis precedes the demise of photoreceptors. […] Seventy-two (72) hours after plating, ARPE-19 cells were serum starved for 4 hours. A2E (20 μM) was added in the presence of 430 nM light and O2 (see Materials and Methods). Other cells were exposed instead to H2O2/TNFα. NPD1 was added prior to, or at different times after, A2E or H2O2/TNFα, up to 12 hours. Time of NPD1 addition is indicated by black arrows on FIG. 1A. Hoechst 33258 was analyzed at 15 hours. FIG. 1B illustrates the appearance of Hoechst 33258 positive cells upon exposure to A2E and the effect of NPD1. FIG. 1C is similar to FIG. 1B, except that H2O2/TNFα was used to trigger oxidative stress. […]

Test [2] deals with ARPE-19 cells. As to the kind of experiment: Serum starvation/H2O2/TNFα oxidative stress-induced apoptosis in ARPE-19 cells (Hoechst staining). The test is classed as cell-based, human. The note with it: NPD1 added eight hours after triggering oxidative stress. As to the method:
Exposure of ARPE-19 cells to growth factors. Cells at 75-80% confluence (72 hr growth in DMEM/F12+10% FBS) were serum-starved for 2 hr before exposure to growth factors. The serum-starved cells were treated with TNF-α (Sigma-Aldrich Corporation, St. Louis, Mo.) (10 ng/ml) and H2O2 (600 μM) to induce oxidative stress and challenged with increasing concentrations (10, 30, 50 nM) and PEDF (Chemicon International, Temecula, Calif.) (50 ng/ml) simultaneously with oxidative stress for 4 hr before harvesting for protein analysis. Cell extracts were made and protein concentrations were adjusted by Bio-Rad protein reagent and used for Western-blot analysis. […] Cells were analyzed to detect Hoechst-positive apoptotic cells.
Hoechst Staining. […] Cells were washed once with PBS and photographed using a Nikon DIAPHOT 200 microscope with fluorescence optics. Images were recorded by a Hamamatsu Color Chilled 3CCD camera and PHOTOSHOP 5.0 software (Adobe Systems, Mountain View, Calif.).
A2E, a lipofusin component, accumulates in the RPE during aging, and, in an exaggerated manner, in age-related macular degeneration (AMD) and Stargardt macular dystrophy (an early onset form of AMD). […] Hoechst 33258 was analyzed at 15 hours. […]

For test [3], the system named is ARPE-19 cells. Kind of test: Cell viability using calcein (AM), ethidium homodimer and phase contrast microscopy after oxidative stress. The format is cell-based, human. Conditions: added up to 15 hr after triggering oxidative stress; data not shown. An excerpt: A2E-triggered oxidative stress precedes cell death. Since oxidative stress and/or inflammatory signaling are involved in early stages of retinal degenerations, oxidative stress, triggered by another experimental condition, serum starvation/H2O2/TNFα was explored (FIG. 1C). NPD1 also exerted protection in this experimental condition. […] What was surprising was the extended time window. […] (Data not shown)

A further test concerns A2E oxiranes (epoxides). Kind of test: A2E conversion to A2E oxiranes (epoxides) in ARPE-19 cells, LC-MS-MS. The test is classed as cell-based, human. The note with it: NPD1 50 nM; light and oxygen. As to the method: as §1, with “stress. FIG. 1D depicts the formation of oxiranes (epoxides) upon exposure of ARPE-19 cells to A2E in the presence of O2 and 430 nM light for 15 minutes followed by 60 minutes incubation in the dark.” for “stress.”
To study the mechanism of NPD1-mediated RPE protection against A2E oxidative stress, the possibility that A2E conversion to A2E oxiranes (epoxides) may be the target of NPD1 was tested. […] Multiple oxiranes (epoxides), up to nonaoxiranes, were detected by MS-MS in ARPE-19 cells exposed to light and oxygen (FIG. 1D).

The test system of another test is caspase-3. As to the kind of experiment: Caspase-3 cleavage in A2E-exposed ARPE-19 cells (Western blot). The format is cell-based, human. The note with it: NPD1 50 nM. The procedure:
(§2) Analysis of Bcl-2 and caspase-3 cleavage. Bcl-2 protein and caspase-3 cleavage were analyzed by Western-blot analysis. Also, ARPE-19 cells, stably transfected with a lentivirus construct containing the […] caspase 3 cleavage sequence, were used. In short, 15-20 μg equivalent of each cell extract were subjected to electrophoresis on an 8-16% gel (Invitrogen Corporation, Carlsbad, Calif.) at 125 volts for 2 hr. The proteins were transferred to nitrocellulose membranes at 30 volts for 70 minutes at 4° C. The membranes were probed with primary antibodies against Bcl-2 (Santa Cruz Biotechnology, Inc., Santa Cruz, Calif.) and cleaved caspase-3 (Asp-175) (Cell Signaling) at room temperature and treated for 20 minutes with the secondary antibody, goat anti-rabbit IgG: horseradish peroxidase, and horseradish peroxidase-conjugated anti-biotin antibody, then proteins were detected by using an ECL kit (Amersham Biosciences, Buckinghamshire, United Kingdom).
(§3) Caspase cleavage and Bcl-2 changes triggered by A2E are restored by NPD1. […] NPD1 (50 nM) counteracted the effect of A2E (see Materials and Methods). Data is an average of relative density detection±SEM of six individuals. […] These findings indicate that NPD1 protects the RPE against A2E-induced apoptosis at the pre-mitochondrial level of the apoptosis cascade by altering Bcl-2 balance. […]

For a further test, the system named is Bax. As to the kind of experiment: Bax expression in A2E-exposed ARPE-19 cells (Western blot). The format is cell-based, human. The note with it: NPD1 50 nM. A general note: In western blotting, separated proteins are transferred to a membrane and probed.
The subject of another test is Bcl-2. As to the kind of experiment: Bcl-2 expression in A2E-exposed ARPE-19 cells (Western blot). The test is classed as cell-based, human. Conditions: NPD1 50 nM. The procedure:
as §2, §3

Where [4] appears, read: increasing concentrations, 72 hr.

For the molecule `CC/C=C\C/C=C\C/C=C\C/C=C\C/C=C\C/C=C\CCC(=O)O` [DHA, docosahexaenoic acid], the “Cellular NPD1 content (percentile distribution of total NPD1)” value in the test on NPD1 synthesis (200 nM DHA (25% when no DHA was added)) is listed as 7%. Further, in the test with NPD1 synthesis (DHA treatment on the apical media), the “DHA concentration at which NPD1 in the apical media reaches a maximum” value came to 50 nM.
On to `CC/C=C\C[C@H](O)\C=C/C=C/C=C/[C@H](O)C/C=C\C/C=C\CCC(=O)O` [NPD1, Neuroprotectin D1], for which, in the test with ARPE-19 cells [1] (A2E 20 μM, 430 nm light and O2, Hoechst at 15 hours), the “Cytoprotection against A2E-induced apoptosis (Hoechst 33258 positive cells)” value was “cytoprotective”. Besides, in the test on ARPE-19 cells [1] (NPD1 50 nM added 6 hours after A2E), the “Protection against A2E-induced apoptosis, delayed addition” value is on record as “ensures protection”. The “Protection against H2O2/TNFα oxidative stress-induced apoptosis, delayed addition” value in the test on ARPE-19 cells [2] is given as “resulted in protection”. In addition, in the test on ARPE-19 cells [3], the “Protection of cell viability (calcein AM, ethidium homodimer, phase contrast)” value was “showed protection”. For the same molecule, in the test on A2E oxiranes (epoxides), the “Effect on A2E conversion to A2E oxiranes (epoxides)” value was “did not affect this conversion”. For the same molecule, the “Effect on A2E-enhanced caspase-3 cleavage” value in the test on caspase-3 was “counteracted A2E-enhanced caspase-3 cleavage”. In the test with Bax, the “Effect on Bax expression” value is reported as “showed a tendency to decrease Bax expression”. For the same molecule, the “Effect on Bcl-2 protein expression” value in the test on Bcl-2 is listed as “increased Bcl-2 protein expression”.
For the molecule `CCCCC/C=C\C/C=C\C/C=C\C/C=C\CCCC(=O)O` [arachidonic acid, reference compound], the “NPD1 synthesis and release, fatty acid added to the apical medium” value in the test with NPD1 synthesis (72 hr, DHA 0 to 200 nM, arachidonic acid under similar conditions) was “failed to induce NPD1 synthesis”. For the same molecule, the “NPD1 synthesis, arachidonic acid in the presence of PEDF” value in the test with NPD1 synthesis (added arachidonic acid with PEDF) was “did not stimulate NPD1 synthesis”.

B1: CNTF: ciliary neurotrophic factor, a neurotrophin (protein, UniProt P26441 1-200, looked up)
Ciliary neurotrophic factor: MAFTEHSPLTPHRRDLCSRSIWLARKIRSDLTALTESYVKHQGLNKNINLDSADGMPVASTDQWSELTEAERLQENLQAYRTFHVLLARLLEDQQVHFTPTEGDFHQAIHTLLLQVAAFAYQIEELMILLEYKIPRNEADGMPINVGDGGLFEKKLWGLKVLQELSQWTVRSIHDLRFISSHQTGIPARGSHYIANNKKM
Consider B1, for which, in the test with NPD1 synthesis (setting [4]), the “NPD1 release, neurotrophin added to the apical medium” value is reported as “concentration-dependent increases in NPD1 release only on the apical side” and the “NPD1 release, neurotrophin added to the basal medium” value is reported as “much less NPD1 release on the apical side”.

Source of the values: US20100303887A1, “DHA and PEDF, a Therapeutic Composition for Nerve and Retinal Pigment Epithelial Cells” (priority 2007, published 2010).
